Source: PMC6264278, “Corydaline Inhibits Multiple Cytochrome P450 and UDP-Glucuronosyltransferase Enzyme Activities in Human Liver Microsomes” (Molecules, 2011)
Read-outs that look alike come from different tables or passages of the source.

What was measured:
Format in all cases: in vitro ADME
CYP3A = target: T1, CYP3A (Homo sapiens, UniProt P08684); assay: CYP3A midazolam 1'-hydroxylation inhibition, cocktail assay in pooled human liver microsomes; conditions: 2.5 μM midazolam
T1 construct: using pooled human liver microsomes; tissue BD Gentest Co. H161; host or cells: pooled human liver microsomes
T1 sequence (P08684 2-503): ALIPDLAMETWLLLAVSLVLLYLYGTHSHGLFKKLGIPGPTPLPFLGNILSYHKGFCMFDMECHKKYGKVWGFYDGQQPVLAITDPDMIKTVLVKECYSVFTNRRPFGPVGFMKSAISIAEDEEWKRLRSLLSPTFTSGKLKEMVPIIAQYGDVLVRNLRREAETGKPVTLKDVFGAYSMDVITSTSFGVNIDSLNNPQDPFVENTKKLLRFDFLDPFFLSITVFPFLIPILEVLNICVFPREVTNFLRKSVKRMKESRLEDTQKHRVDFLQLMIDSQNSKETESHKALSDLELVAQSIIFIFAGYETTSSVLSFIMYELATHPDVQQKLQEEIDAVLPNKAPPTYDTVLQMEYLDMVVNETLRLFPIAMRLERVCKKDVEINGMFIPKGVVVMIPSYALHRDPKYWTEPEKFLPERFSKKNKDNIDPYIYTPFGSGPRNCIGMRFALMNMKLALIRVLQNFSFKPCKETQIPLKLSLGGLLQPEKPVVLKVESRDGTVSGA
Method: (§1) Phenacetin O-deethylase, coumarin 7-hydroxylase, amodiaquine N-deethylase, diclofenac 4-hydroxylase, S-mephenytoin 4-hydroxylase, bufuralol hydroxylase, and midazolam 1’-hydroxylase activities were determined as probe activities for CYP1A2, CYP2A6, CYP2C8, CYP2C9, CYP2C19, CYP2D6, and CYP3A4, respectively, using cocktail incubation and liquid chromatography-tandem mass spectrometry (LC/MS/MS). The incubation mixtures were prepared in a total volume of 200 μL, as follows: pooled human liver microsomes (0.25 mg/mL), 1.3 mM NADPH, 3.3 mM MgCl2, 50 mM potassium phosphate buffer (pH 7.4), and a cocktail of probe substrates and various concentrations of corydaline (1−200 μM). The substrates were used at concentrations approximately equal to their respective Km values: 50 μM phenacetin, 2.5 μM coumarin, 2.5 μM amodiaquine, 10 μM diclofenac, 100 μM S-mephenytoin, 5 μM bufuralol, and 2.5 μM midazolam. After a 3-min pre-incubation period at 37 °C, the reactions were initiated by addition of an NADP generating system and incubated for 20 min at 37 °C in a shaking water bath. After incubation, the reaction was stopped by placement of the tubes on ice and addition of 100 μL of ice-cold methanol containing internal standards (^13C2,^15N-acetaminophen for acetaminophen and N-desethylamodiaquine, d5-7-hydroxycoumarin for 7-hydroxycoumarin, ^13C6-4-hydroxydiclofenac for 4-hydroxydiclofenac, d3-4-hydroxy-mephenytoin for 4-hydroxymephenytoin and hydroxymidazolam, d9-1-hydroxybufuralol for 1-hydroxybufuralol). The incubation mixtures were then centrifuged at 13,000 × g for 5 min. All incubations were performed in triplicate and the mean values were used. […] The reaction was started by addition of a cocktail of CYP probe substrates.
(§2) All 7 metabolites produced from the cocktail of CYP isoform-specific substrates were simultaneously determined by LC/MS/MS [25]. […] Quantification was performed by selected reaction monitoring (SRM) of the [M+H]^+ ion and the related product ion for each metabolite. […]

CYP2D6 = target: T2, CYP2D6 (Homo sapiens, UniProt P10635); assay: CYP2D6 bufuralol 1'-hydroxylation inhibition in pooled human liver microsomes; conditions: for inhibition mode, CYP2D6 bufuralol 1'-hydroxylation: Lineweaver, Dixon and secondary reciprocal plots; for IC50: 5.0 μM bufuralol, mean ± SD, n = 3
T2 construct: using pooled human liver microsomes; tissue BD Gentest Co. H161; host or cells: pooled human liver microsomes
T2 sequence (P10635 whole entry): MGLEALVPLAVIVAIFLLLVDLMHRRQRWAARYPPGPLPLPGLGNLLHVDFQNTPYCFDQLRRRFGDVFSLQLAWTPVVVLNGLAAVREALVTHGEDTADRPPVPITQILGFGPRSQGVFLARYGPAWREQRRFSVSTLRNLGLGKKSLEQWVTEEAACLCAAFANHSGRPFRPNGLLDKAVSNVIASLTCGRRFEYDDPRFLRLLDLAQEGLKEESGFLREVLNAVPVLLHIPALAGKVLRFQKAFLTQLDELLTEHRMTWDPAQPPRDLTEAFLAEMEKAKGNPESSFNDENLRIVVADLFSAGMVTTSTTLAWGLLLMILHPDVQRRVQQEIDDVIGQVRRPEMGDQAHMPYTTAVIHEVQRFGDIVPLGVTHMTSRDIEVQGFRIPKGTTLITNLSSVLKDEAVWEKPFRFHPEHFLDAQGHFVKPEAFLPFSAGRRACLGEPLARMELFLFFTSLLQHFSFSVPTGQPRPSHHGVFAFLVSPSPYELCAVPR
Method: as §1
All 7 metabolites produced from the cocktail of CYP isoform-specific substrates were simultaneously determined by LC/MS/MS [25]. The system consisted of a tandem quadrupole mass spectrometer (TSQ Quantum Access, ThermoFisher Scientific, San Jose, CA, USA) coupled with a Nanospace SI-2 LC system. Separation was performed on an Atlantis dC18 column (5 μm, 2.1 mm i.d. ×100 mm, Waters, Milford, MA, USA) using the gradient elution of a mixture of 5% methanol in 0.1% formic acid (mobile phase A) and 95% methanol in 0.1% formic acid (mobile phase B) at a flow rate of 0.25 mL/min: 10% mobile phase B for 1 min, 10% to 95% mobile phase B for 1 min, 95% mobile phase B for 5 min. The column and autosampler temperatures were 50 and 6 °C, respectively. After 1.5 min, the LC eluent was diverted from waste to the mass spectrometer fitted with the electrospray ionization (ESI) source and operated in positive ion mode. […] Quantification was performed by selected reaction monitoring (SRM) of the [M+H]^+ ion and the related product ion for each metabolite. […]
Reactions were initiated by addition of NADPH at 37 °C and stopped after 15 min by placement of the incubation tubes on ice and addition of ice-cold methanol (100 μL) containing an internal standard (2.0 μg/mL ^13C6-4-hydroxydiclofenac for diclofenac, 0.5 μg/mL d3-4-hydroxymephenytoin for mephenytoin, or 0.5 μg/mL d9-1-hydroxy-bufuralol for bufuralol). The incubation mixtures were centrifuged at 13,000 × g for 5 min, and aliquots (5 μL) of the supernatants were analyzed by LC/MS/MS. […] Aliquots (5 μL) were analyzed by LC/MS/MS. […]

CYP1A2 = target: T3, CYP1A2 (Homo sapiens, UniProt P05177); assay: CYP1A2 phenacetin O-deethylation inhibition, cocktail assay in pooled human liver microsomes; conditions: 50 μM phenacetin, no inhibition at 200 μM of corydaline; for IC50 no preincubation, CYP1A2 phenacetin O-deethylation: pooled human liver microsomes (H161)
T3 construct: using pooled human liver microsomes; tissue BD Gentest Co. H161; host or cells: pooled human liver microsomes
T3 sequence (P05177 1-516): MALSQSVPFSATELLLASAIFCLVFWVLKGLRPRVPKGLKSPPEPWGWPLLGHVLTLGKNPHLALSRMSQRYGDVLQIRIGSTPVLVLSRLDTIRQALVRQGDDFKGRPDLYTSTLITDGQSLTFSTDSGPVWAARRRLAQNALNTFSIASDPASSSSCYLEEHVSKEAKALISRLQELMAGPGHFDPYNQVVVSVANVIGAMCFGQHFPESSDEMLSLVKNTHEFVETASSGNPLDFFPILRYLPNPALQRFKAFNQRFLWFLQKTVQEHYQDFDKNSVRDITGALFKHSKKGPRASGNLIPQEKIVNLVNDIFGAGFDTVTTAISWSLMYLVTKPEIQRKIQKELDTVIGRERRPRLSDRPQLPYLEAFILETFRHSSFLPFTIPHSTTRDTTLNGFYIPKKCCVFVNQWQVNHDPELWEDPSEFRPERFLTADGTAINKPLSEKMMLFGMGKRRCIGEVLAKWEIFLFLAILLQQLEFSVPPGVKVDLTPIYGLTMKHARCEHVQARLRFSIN
Method: as §1, §2

COc1cc2c(cc1OC)C1C(C)c3ccc(OC)c(OC)c3CN1CC2 (centres unmarked) [Corydaline, 2,3,9,10-tetramethoxy-13-methyl-5,8,13,13a-tetrahydro-6H-isoquino[3,2-a]isoquinoline]
IC50 no preincubation, CYP3A midazolam 1'-hydroxylation (CYP3A; pooled human liver microsomes (H161)): negligible inhibition | IC50 (CYP3A; pooled human liver microsomes (H161), read-out: IC50 no preincubation, CYP3A midazolam 1'-hydroxylation): > 200 µM | IC50 (CYP3A; pre-incubated 30 min with NADPH, mean ± SD, n = 3, read-out: IC50 with preincubation, CYP3A midazolam 1'-hydroxylation): 67.4 ± 9.8 µM | inhibition mode, CYP2D6 bufuralol 1'-hydroxylation (CYP2D6): competitively | inhibition mode, CYP2D6 bufuralol 1'-hydroxylation (CYP2D6; listed as corydaline): competitive | Ki (CYP2D6; human liver microsomes, 0.5-5 μM bufuralol): 27.3 ± 0.7 µM | IC50 (CYP2D6; pooled human liver microsomes (H161), read-out: IC50 no preincubation, CYP2D6 bufuralol 1'-hydroxylation): 64.5 ± 9.8 µM | IC50 (CYP2D6; pre-incubated 30 min with NADPH, read-out: IC50 with preincubation, CYP2D6 bufuralol 1'-hydroxylation): 116 ± 7.6 µM | IC50 no preincubation, CYP1A2 phenacetin O-deethylation (CYP1A2): negligible inhibition | IC50 no preincubation, CYP1A2 phenacetin O-deethylation (CYP1A2; listed as corydaline): No inhibition ** | IC50 with preincubation, CYP1A2 phenacetin O-deethylation (CYP1A2; pre-incubated 30 min with NADPH): No inhibition **
